Our source for the inhibition values is US5948786A, “Piperidinylpyrimidine derivatives” (Sumitomo Pharmaceuticals Company, Limited, priority 1996, dated 1999).

The structures appear in SMILES notation.

The test has as its system TNF α production from mouse macrophages. The experiment in a line: Inhibitory activity of compound on TNF α Production from mouse macrophages (LPS-induced PEC's). It is filed as cell-based. As to conditions: Macrophage, LPS 10 μg/ml, 18 hours. The protocol:
BALB/c mice (female, 5-7 weeks old, Charles River Japan, Tokyo, Japan) were injected i.p. with 1 ml of 2.4% thioglycollate broth. After 4 days, the mice were sacrificed. Peritoneal exudated cells (PEC's) were collected from the peritoneal cavity by washing with minimum essential medium (MEM, Handai biseibutubyou kenkyukai, Osaka, Japan) containing 5 U/ml heparin, 1% fetal bovine serum (FBS, Filtron, Victoria, Australia) and antibiotics. The cells were washed two times with MEM, suspended with MEM containing 10% FBS (complete MEM, cMEM) and seeded into 96-well culture plates (Costar, Cambridge, Mass., USA) at 2×10^5 cells/well. The cells were incubated for 1 hour at 37° C. in a humidified 5% CO2 incubator and washed two times to remove non-adherent cells.
TNF α was induced by 10 μg/ml of LPS (E. coli O111B4, DIFCO, Detroit, Mich., USA) the cells were cultured for 18 hours at 37° C. A compound of the present invention was dissolved in DMSO and added to the culture simultaneously with LPS. The final DMSO concentration was below 0.1%. The TNF α concentration in supernatant and recombinant mouse TNF α standard (rm-TNF α, Genzyme, Mass., USA) were incubated overnight at 4° C. in a 96-well plate coated with anti-mouse TNF α monoclonal antibody (PharMingen, San Diego, Calif., USA) that previously had been blocked with 10% FBS. Each well of the plate first was incubated at room temperature with biotinylated anti-mouse TNF α polyclonal antibodies (PharMingen) for 45 minutes, then with peroxidase-conjugated streptavidin (Kirkegaard & Perry Laboratories Inc., Gaitherburg, Md., USA) for 30 minutes. After each incubation, the plate was washed 4 to 8 times with PBS containing 0.2% Tween 20. TMB (Kirkegaard & Perry Laboratories Inc.) was the peroxidase substrate used and, the absorbance of each well was quantified at 450 nm by a microplatereader (Molecular Devices Corp., CA, USA). TNF α levels in the supernatant were quantified with rm-TNF α as the standard.

Take `CCCCC(=O)N1CCC(c2cc(Cc3ccc(OC)cc3)nc(N)n2)CC1` [Example 165]: the inhibition (usually the drop in the measured response relative to a control, in per cent) at 30 µM was determined as 41%.

As to `COc1ccc(CC(=O)N2CCC(c3cc(-c4ccccc4)nc(N)n3)CC2)cc1` [Example 142], the inhibition at 30 µM worked out at 55%.

For the molecule `COc1ccc(C(=O)N2CCC(c3nc(N)nc4ccccc34)CC2)c(OC)c1` [Example 53], the inhibition at 30 µM is 54%.

For `COc1ccc(Cc2cc(C3CCN(C(=O)CCO)CC3)nc(N)n2)cc1` [Example 177], the inhibition at 30 µM was found to be 46%.

Turning to `COc1ccc(Cc2cc(C3CCN(C(=O)c4ccccc4[N+](=O)[O-])CC3)nc(N)n2)cc1` [Example 184], the inhibition at 30 µM came out at 73%.

As to `COc1ccc(Cc2cc(C3CCN(C(=O)CCBr)CC3)nc(N)n2)cc1` [Example 175], the inhibition at 30 µM was 48%.

For `CCCCCCCCCC(=O)N1CCC(c2cc(Cc3ccc(OC)cc3)nc(N)n2)CC1` [Example 170], the inhibition at 30 µM amounted to 11%.

On to `Nc1nc(C2CCN(C(=O)Cc3ccc(Cl)cc3Cl)CC2)c2ccccc2n1` [Example 94], for which the inhibition at 30 µM came out at 78%.

With `CCCCCCCCC(=O)N1CCC(c2nc(N)nc3ccc(Cl)cc23)CC1` [Example 128], the inhibition at 30 µM came out at 79%.

On to `COc1ccc(Cc2cc(C3CCN(C(C)=O)CC3)nc(N)n2)cc1` [Example 162], for which the inhibition at 30 µM is 61%.

On to `COc1ccccc1C(=O)N1CCC(c2nc(N)nc3ccccc23)CC1` [Example 32], for which the inhibition at 30 µM is 30%.

For the molecule `COc1ccc(Cc2cc(C3CCN(C(=O)Cc4cccc(Cl)c4)CC3)nc(N)n2)cc1` [Example 226], the inhibition at 30 µM came to 69%.

On to `Nc1nc(C2CCN(C(=O)c3ccccc3Cl)CC2)c2ccccc2n1` [Example 35], for which the inhibition at 30 µM came out at 72%.

Consider `COc1ccc(Cc2cc(C3CCN(C(=O)c4ccc(Cl)cc4)CC3)nc(N)n2)cc1` [Example 183], for which the inhibition at 30 µM stood at 54%.

As to `CCCC(=O)N1CCC(c2cc(Cc3ccc(OC)cc3)nc(N)n2)CC1` [Example 164], the inhibition at 30 µM turned out to be 43%.

As to `Nc1nc(C2CCN(C(=O)CCCCCCCCCO)CC2)c2ccccc2n1` [Example 30], the inhibition at 30 µM was 64%.

For the molecule `CCCCCCCC(=O)N1CCC(c2nc(N)nc3ccc(OC)cc23)CC1` [Example 104], the inhibition at 30 µM came out at 50%.

For the molecule `Nc1nc(C2CCN(C(=O)c3ccc(Cl)cc3)CC2)c2ccccc2n1` [Example 37], the inhibition at 30 µM stood at 4%.

As to `Nc1nc(C2CCN(C(=O)Cc3ccc([N+](=O)[O-])cc3)CC2)c2ccccc2n1` [Example 88], the inhibition at 30 µM is 26%.

In the case of `Nc1nc(C2CCN(C(=O)c3cccc4ccccc34)CC2)c2ccccc2n1` [Example 66], the inhibition at 30 µM is 32%.

Turning to `COc1ccc(C(=O)N2CCC(c3nc(N)nc4ccc(OC)cc34)CC2)cc1` [Example 110], the inhibition at 30 µM turned out to be 21%.

Regarding `Nc1nc(C2CCN(C(=O)c3cc(Cl)cc(Cl)c3Cl)CC2)c2ccccc2n1` [Example 73], the inhibition at 30 µM worked out at 23%.

With `CCCCCCCCC(=O)N1CCC(c2cc(-c3ccc(OC)cc3)nc(N)n2)CC1` [Example 155], the inhibition at 30 µM turned out to be 76%.

Turning to `COc1ccc(Cc2cc(C3CCN(C(=O)c4ccccc4OC)CC3)nc(N)n2)cc1` [Example 178], the inhibition at 30 µM was 76%.

With `COc1ccc2nc(N)nc(C3CCN(C(=O)c4ccc([N+](=O)[O-])cc4)CC3)c2c1` [Example 116], the inhibition at 30 µM is 23%.

Regarding `Nc1nc(C2CCN(C(=O)c3cccc(Cl)c3)CC2)c2ccccc2n1` [Example 36], the inhibition at 30 µM is 42%.

In the case of `COc1ccc(-c2cc(C3CCN(C(=O)Cc4ccc(Cl)cc4)CC3)nc(N)n2)cc1` [Example 159], the inhibition at 30 µM was 75%.

`Nc1nc(C2CCN(C(=O)c3c(Cl)ccc(Cl)c3Cl)CC2)c2ccccc2n1` [Example 74]: the inhibition at 30 µM was found to be 88%.

With `COc1ccc(-c2cc(C3CCN(C(=O)Cc4ccc([N+](=O)[O-])cc4)CC3)nc(N)n2)cc1` [Example 160], the inhibition at 30 µM is 57%.

As to `COc1ccc(Cc2cc(C3CCN(C(=O)Cc4ccc([N+](=O)[O-])cc4[N+](=O)[O-])CC3)nc(N)n2)cc1` [Example 242], the inhibition at 30 µM was 31%.

As to `COc1ccc(CC(=O)N2CCC(c3nc(N)nc4ccc(OC)cc34)CC2)cc1` [Example 120], the inhibition at 30 µM turned out to be 31%.

For `CCCCCCC(=O)N1CCC(c2cc(Cc3ccc(OC)cc3)nc(N)n2)CC1` [Example 167], the inhibition at 30 µM worked out at 52%.

Take `COc1ccc(Cc2cc(C3CCN(C(=O)CCNC(=O)OC(C)(C)C)CC3)nc(N)n2)cc1` [Example 176, 2-amino-4-[1-(3-t-butoxycarbonylaminopropanoyl)-4-piperidinyl]-6-(4-methoxyphenylmethyl)pyrimidine]: the inhibition at 30 µM amounted to 60%.

With `Nc1nc(C2CCN(C(=O)c3cccc([N+](=O)[O-])c3)CC2)c2ccccc2n1` [Example 39], the inhibition at 30 µM stood at 12%.

With `CCCCCCCCC(=O)N1CCC(c2cc(Cc3ccc(OC)cc3)nc(N)n2)CC1` [Example 169], the inhibition at 30 µM turned out to be 12%.

Consider `Nc1nc(C2CCN(C(=O)Cc3ccccc3Cl)CC2)c2ccccc2n1` [Example 80], for which the inhibition at 30 µM turned out to be 28%.

In the case of `CCCCCCCCCC(=O)N1CCC(c2nc(N)nc3ccc(OC)cc23)CC1` [Example 106], the inhibition at 30 µM was 54%.

For `COc1ccc(CC(=O)N2CCC(c3cc(Cc4ccc(OC)cc4)nc(N)n3)CC2)cc1` [Example 224], the inhibition at 30 µM was 73%.

For the molecule `COc1ccc(Cc2cc(C3CCN(C(=O)c4ccc(OC)cc4)CC3)nc(N)n2)cc1` [Example 180], the inhibition at 30 µM is 70%.

With `COc1ccc(Cc2cc(C3CCN(C(=O)c4cc(OC)c(OC)c(OC)c4)CC3)nc(N)n2)cc1` [Example 217], the inhibition at 30 µM came out at 44%.

For the molecule `Nc1nc(C2CCN(C(=O)c3ccccc3[N+](=O)[O-])CC2)c2ccccc2n1` [Example 38], the inhibition at 30 µM turned out to be 30%.

Turning to `CCCCCCCCC(=O)N1CCC(c2cc(Cc3ccc(Cl)cc3)nc(N)n2)CC1` [Example 248], the inhibition at 30 µM was -6%.

Turning to `COc1ccc(Cc2cc(C3CCN(C(=O)c4ccncc4)CC3)nc(N)n2)cc1` [Example 196], the inhibition at 30 µM turned out to be 57%.

Regarding `CCCCCC(=O)N1CCC(c2nc(N)nc3ccccc23)CC1` [Example 19], the inhibition at 30 µM is 10%.

For the molecule `CCCCCCCCCCC(=O)N1CCC(c2cc(Cc3ccc(OC)cc3)nc(N)n2)CC1` [Example 171], the inhibition at 30 µM was 13%.

Consider `COc1ccc(Cc2cc(C3CCN(C(=O)c4cccc(Cl)c4)CC3)nc(N)n2)cc1` [Example 182], for which the inhibition at 30 µM came to 46%.

Consider `COc1cccc(C(=O)N2CCC(c3nc(N)nc4ccccc34)CC2)c1` [Example 33], for which the inhibition at 30 µM is 18%.

As for `CCCCCC(=O)N1CCC(c2cc(Cc3ccc(OC)cc3)nc(N)n2)CC1` [Example 166], the inhibition at 30 µM was 48%.

Turning to `COc1ccc(OC)c(C(=O)N2CCC(c3nc(N)nc4ccccc34)CC2)c1OC` [Example 69], the inhibition at 30 µM is -95%.

`COc1ccccc1CC(=O)N1CCC(c2nc(N)nc3ccccc23)CC1` [Example 77]: the inhibition at 30 µM worked out at 27%.

In the case of `COc1cc(CC(=O)N2CCC(c3nc(N)nc4ccccc34)CC2)cc(OC)c1` [Example 93], the inhibition at 30 µM worked out at 60%.

Consider `CCCC(=O)N1CCC(c2nc(N)nc3ccccc23)CC1` [Example 17], for which the inhibition at 30 µM was 8%.
